Reference: US20220324862A1, “PYRIDOPYRIMIDINONE COMPOUNDS” (Acerand Therapeutics (USA) Limited, priority 2021, published 2022)

Target: T1, protein-protein interaction between SOS1 and KRAS-G12D (Homo sapiens, UniProt Q07889)
T1 construct: The purified GST-SOS1 catalytic domain (residues 564-1049) was first diluted in assay buffer; made in house; host or cells: E. coli BL21 (DE3) for SOS1; E. coli BL21 carrying a BirA plasmid for KRAS-G12D
T1 sequence (Q07889 564-1049): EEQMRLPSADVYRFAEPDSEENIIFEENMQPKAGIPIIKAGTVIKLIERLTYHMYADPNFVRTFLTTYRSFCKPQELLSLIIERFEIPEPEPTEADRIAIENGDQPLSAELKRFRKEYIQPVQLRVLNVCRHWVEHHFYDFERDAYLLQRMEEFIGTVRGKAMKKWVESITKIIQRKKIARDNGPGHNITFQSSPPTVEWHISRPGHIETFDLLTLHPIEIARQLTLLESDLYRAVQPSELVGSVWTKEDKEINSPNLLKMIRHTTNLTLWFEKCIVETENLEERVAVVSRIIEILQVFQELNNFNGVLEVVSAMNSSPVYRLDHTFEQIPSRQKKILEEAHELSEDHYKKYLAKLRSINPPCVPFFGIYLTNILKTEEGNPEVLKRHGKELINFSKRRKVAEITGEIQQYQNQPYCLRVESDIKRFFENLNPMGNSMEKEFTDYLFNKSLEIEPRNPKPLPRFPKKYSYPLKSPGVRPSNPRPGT
Assay: HTRF Based Protein-Protein Interaction Assay
Type: binding
Conditions: HTRF; GST-SOS1 2.5 nM, KRAS-G12D 100 nM, GDP 10 uM; read-out: IC50 value, inhibition of SOS1/KRAS-G12D protein-protein interaction
Summary of the method: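 GST-SOS1 (residues 564-1049, 2.5 nM) preincubated 15 min at 25° C with compound (0.5 nM-10 μM, 3-fold), then biotinylated avi-KRAS-G12D (1-169, 100 nM) with 10 uM GDP added for 60 min. HTRF read after 5 h with anti-GST-Tb cryptate/streptavidin-XL665; buffer HEPES pH 7.5, Brij-35, TCEP, BSA.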

Row | IC50 | SMILES
1 | < 100 nM | C#C[C@@H](Nc1nc(C)nc2c1cc(C1(F)CCN(C(C)=O)CC1)c(=O)n2C)c1cccc(C(F)(F)F)c1C [Compound 56, 6-(1-acetyl-4-fluoropiperidin-4-yl)-2,8-dimethyl-4-{[(1R)-1-[2-methyl-3-(trifluoromethyl)phenyl]prop-2-yn-1-yl]amino}-7H,8H-pyrido[2,3-d]pyrimidin-7-one]
2 | < 100 nM | C#C[C@@H](Nc1ncnc2c1cc(C1(NC(C)=O)CCN(C(C)=O)CC1)c(=O)n2C)c1cccc(C(F)(F)F)c1C [Compound 57, (R)-N-(1-acetyl-4-(8-methy-4-((1-(2-methyl-3-(trifluoromethyl)phenyl)prop-2-yn-1-yl)amino)-7-oxo-7,8-dihydropyrido[2,3-d]pyrimidin-6-yl)piperidin-4-yl)acetamide]
3 | < 100 nM | C#C[C@@H](Nc1nc(C)nc2c1cc(C1(OC)CCN(C(C)=O)CC1)c(=O)n2C)c1cccc(C(F)(F)F)c1C [Compound 55, 6-(1-acetyl-4-methoxypiperidin-4-yl)-2,8-dimethyl-4-{[(1R)-1-[2-methyl-3-(trifluoromethyl)phenyl]prop-2-yn-1-yl]amino}-7H,8H-pyrido[2,3-d]pyrimidin-7-one]
4 | < 100 nM | C#C[C@@H](Nc1nc(C)nc2c1cc(C1(O)CCN(C(C)=O)CC1)c(=O)n2C)c1cccc(C(F)(F)F)c1C [Compound 54, 6-(1-acetyl-4-hydroxypiperidin-4-yl)-2,8-dimethyl-4-{[(1R)-1-[2-methyl-3-(trifluoromethyl)phenyl]prop-2-yn-1-yl]amino}-7H,8H-pyrido[2,3-d]pyrimidin-7-one]
5 | 100 to 200 nM | C#C[C@@H](Nc1ncnc2c1cc(C1(NC(C)=O)CCOCC1)c(=O)n2C)c1cccc(C(F)(F)F)c1C [Compound 58, (R)-N-(4-(8-methy-4-((1-(2-methyl-3-(trifluoromethyl)phenyl)prop-2-yn-1-yl}amino)-7-oxo-7,8-dihydropyrido[2,3-d]pyrimidin-6-yl)tetrahydro-2H-pyran-4-yl)acetamide]

Second part, the compound before the results:

Row | SMILES | IC50
6 | C#C[C@@H](Nc1ncnc2c1cc(C1(O)CCN(C(C)=O)C1)c(=O)n2C)c1cccc(C(F)F)c1F (stereo partly drawn) [Compound 43, 6-(1-acetyl-3-hydroxypyrrolidin-3-yl)-4-{[(1R)-1-[3-(difluoromethyl)-2-fluorophenyl]prop-2-yn-1-yl]amino}-8-methyl-7H,8H-pyrido[2,3-d]pyrimidin-7-one] | 100 to 200 nM
7 | C#C[C@@H](Nc1ncnc2c1cc(C1(O)CCN(C(C)=O)CC1)c(=O)n2C)c1cccc(C(F)F)c1F [Compound 46, 6-(1-acetyl-4-hydroxypiperidin-4-yl)-4-{[(1R)-1-[3-(difluoromethyl)-2-fluorophenyl]prop-2-yn-1-yl]amino}-8-methyl-7H,8H-pyrido[2,3-d]pyrimidin-7-one] | < 100 nM
8 | C#C[C@@H](Nc1ncnc2c1cc(C1(OC)CCN(C(C)=O)CC1)c(=O)n2C)c1cccc(C(F)F)c1F [Compound 48, (R)-6-(1-acetyl-4-methoxypiperidin-4-yl)-4-((1-(3-(difluoromethyl)-2-fluorophenyl)prop-2-yn-1-yl)amino)-8-methylpyrido[2,3-d]pyrimidin-7(8H)-one] | 100 to 200 nM
9 | C#C[C@@H](Nc1nc(C)nc2cc(=O)n(C3CCOCC3)cc12)c1cccc(C(F)(F)F)c1C [Compound 4, (R)-2-methyl-4-((1-(2-methyl-3-(trifluoromethyl)phenyl)prop-2-yn-1-yl)amino)-6-(tetrahydro-2H-pyran-4-yl)pyrido[4,3-d]pyrimidin-7(6H)-one] | < 100 nM
10 | C#C[C@@H](Nc1nc(C)nc2cc(=O)n(C3(C(F)F)CC3)cc12)c1cccc(C(F)(F)F)c1C [Compound 9, (R)-6-(1-(difluoromethyl)cyclopropyl)-2-methyl-4-((1-(2-methyl-3-(trifluoromethyl)phenyl)prop-2-yn-1-yl)amino)pyrido[4,3-d]pyrimidin-7(6H)-one] | < 100 nM
11 | C#C[C@@H](Nc1ncnc2c1cc(C1(OC)CCN(C(C)=O)C1)c(=O)n2C)c1cccc(C(F)F)c1F (stereo partly drawn) [Compound 49, 6-(1-acetyl-3-methoxypyrrolidin-3-yl)-4-{[(1R)-1-[3-(difluoromethyl)-2-fluorophenyl]prop-2-yn-1-yl]amino}-8-methyl-7H,8H-pyrido[2,3-d]pyrimidin-7-one] | < 100 nM
